Key:
[1] = Cardiac BCAA and BCKA assay post-TAC; assay type: in vivo, mouse; conditions: post-TAC heart, BT2 6 weeks
Protocol: BCAA and BCKA concentration in mouse heart tissue were determined by mass spectrometer using the following transition s: KIC 203.1 to 161.1 (retention time: 2.91 min); KIV 189.145 to 119.2 (retention time 2.84 min); KMV 203.065 to 174.2 (retention time 2.99 min); [^13C] KIV 194.109 to 120.1 (retention time: 2.84 min). Val 174.1/72.1 (retention time 3.2 min), Leu 188.1/86.1 (retention time 5.9 min), Ile 188.2/86.1 (retention time 5.7 min).

[2] = Plasma BCAA/BCKA in DIO mice treated with BT2; assay type: in vivo, mouse; conditions: BT2 40 mg/kg/day 8 weeks
Protocol: (§1) Animals were euthanized using carbon dioxide asphyxiation followed by cervical dislocation and then dissected. Blood was harvested by cardiac puncture and centrifuged to isolate plasma which was stored at −80° C. Acidified citrate dextrose was used as an anticoagulant. Immediately after blood collection, heart, liver, kidneys, and both hind leg quadriceps muscles were removed and snap frozen in liquid nitrogen.
The endogenous signal from blank plasma was subtracted from each point on the standard curve, and the data were plotted in GraphPad Prism. BCAA concentrations in treated samples were determined based on this standard curve.

[3] = test system: pressure-overloaded mouse heart; test: TAC heart failure model with preexisting dysfunction, BT2 from 2 weeks post-TAC for 6 weeks, echocardiography and survival; assay type: in vivo
Protocol: In mice, transverse aortic constriction (TAC) was performed as described (Lee et al. (2011) Circulation Research 109:1332-1341) in anesthetized (pentobarbital 60 mg/kg, IP) and ventilated mice (age 12-14 weeks) to induce hypertrophy and heart failure. After left anterolateral thoracotomy with blunt dissection through the intercostal muscles, aortic constriction was induced by ligating the transverse aorta around a 27½-gauge blunt needle using 6-0 silk suture. The needle was subsequently removed. Sham-operated mice underwent a similar surgical procedure without constriction of the aorta. All mice were maintained in the same environment with regular lab chow and water ad libitum. At the end of the experiments, animals were euthanized and the hearts and lungs were removed and weighed. Hearts were dissected and tissues were either immediately immersed into 4% buffered formaldehyde or quickly frozen in liquid nitrogen for further experiments.

[4] = test system: BCKD subunit E1α; test: Immunoblot of phosphorylated BCKD subunit E1α in heart of BT2-treated mice; assay type: in vivo, mouse; conditions: wild-type mice, BT2 40 mg/kg/d oral gavage vs vehicle
Protocol: PP2Cm germ-line knockout (PP2Cm-KO) mice were generated as previously described (Lu et al. (2009), supra). PP2Cm KO mice were backcrossed for more than 8 generations into a C57BL/6 background. Wild type C57BL/6 mice and PP2Cm KO mice were housed at 22° C. with a 12-hour light, 12-hour dark cycle with free access to water and standard chow. Studies were performed with male mice. Human cohorts of dilated cardiomyopathy and controls were obtained from Columbia and Duke with Institutional Review Board approval. All animal procedures were carried out in accordance with the guidelines and protocols approved by the University of California at Los Angeles Institutional Animal Care and Use Committee (IACUC). Transaortic constriction (TAC) and cardiac echocardiography were performed as reported earlier 17 on mice from different genotypes between 14 and 16 weeks of age. […]
Proteins from heart tissue or cells were harvested in buffer (50 mM HEPES (pH7.4), 150 mM NaCl, 1% NP-40, 1 mM EDTA, 1 mM EGTA, 1 mM glycerophosphate, 2.5 mM sodium pyrophosphate, 1 mM Na3VO4, 20 mM NaF, 1 mM phenylmethylsulfonyl fluoride, 1 μg/mL of aprotinin, leupeptin, and pepstatin). […] Protein signals were detected using HRP conjugated secondary antibodies and enhanced chemiluminescence (ECL) western blotting detection regents (Pierce). […]

[5] = test system: pressure-overloaded mouse heart; test: Metabolic gene expression (quantitative PCR) in pressure-overloaded mouse heart; assay type: in vivo
Description: Total RNA was extracted from heart tissues using Trizol Reagent (Invitrogen) according to the manufacturer's instructions. Total RNA was reverse-transcribed into the first-strand cDNA using ProtoScript® II Reverse Transcriptase (New England BioLabs). Then, cDNA transcripts were quantified by the CFX Real-Time PCR System (BioRad). 18sRNA were used for normalization except where indicated. PCR primer information is available upon request.

[6] = test system: pressure-overloaded heart; test: Transaortic constriction (TAC) pressure overload, BT2 started one week before TAC, echocardiography; assay type: in vivo, mouse; conditions: 4 weeks after TAC, BT2 40 mg/kg/d oral gavage
Protocol: PP2Cm germ-line knockout (PP2Cm-KO) mice were generated as previously described (Lu et al. (2009), supra). PP2Cm KO mice were backcrossed for more than 8 generations into a C57BL/6 background. Wild type C57BL/6 mice and PP2Cm KO mice were housed at 22° C. with a 12-hour light, 12-hour dark cycle with free access to water and standard chow. Studies were performed with male mice. Human cohorts of dilated cardiomyopathy and controls were obtained from Columbia and Duke with Institutional Review Board approval. All animal procedures were carried out in accordance with the guidelines and protocols approved by the University of California at Los Angeles Institutional Animal Care and Use Committee (IACUC). Transaortic constriction (TAC) and cardiac echocardiography were performed as reported earlier 17 on mice from different genotypes between 14 and 16 weeks of age. […] Measurements of BCKD activity in mouse cardiac tissue and plasma BCKA/BCAA concentrations were performed as previously described (Tso et al. (2014), supra).
In mice, transverse aortic constriction (TAC) was performed as described (Gao et al. (2016) J Clin Invest. 126:195-206) in anesthetized (pentobarbital 60 mg/kg, IP) and ventilated mice (age 14-16 weeks) to induce hypertrophy and heart failure. […]

[7] = test system: high fat diet (HFD)-induced obese (DIO) mice; test: Glucose and insulin tolerance, plasma insulin in DIO mice treated with BT2; assay type: in vivo, mouse; conditions: BT2 40 mg/kg/day 8 weeks
Protocol: as §1
Mice were fasted for 6 hours. For insulin tolerance test, mice were injected (intraperitoneal) with insulin (0.75 U/kg body weight). For glucose tolerance test, mice were injected intraperitoneally with D-glucose (2 g/kg body weight). Experiments were performed between 14:00 and 16:00. Blood was drawn 0, 15, 30, 60, and 120 min after insulin or glucose administration. Blood glucose concentrations were measured through tail bleeding before and at the times indicated after injection. Blood glucose was measured using a portable glucometer (Johnson&Johnson). Plasma insulin and TNFα concentrations were measured by Milliplex Multiplex Immunoassay Kits MMHMAG-44K-14 (Merck Millipore, Darmstadt, Germany).

[8] = after 5 weeks post-TAC (3 weeks post-treatment), speckle tracking
[9] = by 2 weeks of BT2 treatment (4 weeks post-TAC)

## O=C(O)c1sc2cc(Cl)ccc2c1Cl [BT2, 3,6-dichlorobenzo[b]thiophene-2-carboxylic acid]
[1]
  cardiac intra-tissue concentrations of BCAA and BCKA: significant reduced
[2]
  plasma BCAA/BCKA levels: lowers
[3]; 5 weeks post-TAC
  longitudinal early diastolic strain rate (SRe): remarkably improved
[3]; BT2 treated mouse hearts post-TAC
  chamber size (ΔLVIDs, ΔLV Vols): stable maintenance
[3]; [8]
  myocardial strain: significantly improved
  myocardial strain rate: significantly improved
[3]; [9]
  increase of EF from baseline (week 2): 6.0±3.4 points
  increase of FS from baseline (week 2): 3.5±1.9 points
[3]; continuation of BT2 for additional 4 weeks
  systolic dysfunction: additional alleviations
[3]; during the treatment period
  beneficial effect on SRe at radial circumferential planes: dispersity
[3]; from two weeks after treatment
  mouse survival: improved
[3]; post-TAC
  systolic velocity and displacement in longitudinal and radial planes: increase
[3]; pressure-overloaded mouse heart, six weeks treatment
  systolic function: preserved
[3]; six weeks treatment
  pressure-overload-induced cardiac structural remodeling: alleviated
[4]
  phosphorylation of BCKD subunit E1α in heart: significantly reduced
[5]; BT2 treated mouse heart
  PDK4 mRNA level: trend of increase
  gene expression related to glucose transport: unaffected
[5]; BT2 treated mouse heart post-TAC
  mRNA level of CD36: moderately increased
[5]; BT2 treated mouse hearts
  genes related to fatty acid β-oxidation (Acox1, Acadm): mild increase
[5]; vehicle vs BT2, post-sham or post-TAC
  mitochondrial DNA amount and PGC-1a mRNA levels: unaffected
[6]
  chamber dilation: reduced
  left ventricular ejection fraction: significantly preserved
[7]
  glucose tolerance: improved
  hyperinsulinemia: improved
  insulin sensitivity: improved
